Laboratory results published in patent US20250281449A1, “NITROGEN-CONTAINING ANALOGS OF SALINOMYCIN FOR USE IN MULTIPLE MYELOMA (MM)” (Centre National de la Recherche Scientifique, priority 2021, published 2025).

Columns and labels:
MM cell lines = test: Cell growth inhibition in panel of MM cell lines; assay type: cell-based, human; settings: 96H
Method: (§1) The panel of 17 HMCL cell lines were incubated with increasing concentrations of Ironomycin (A), AM23 (B) or vehicle for 96H.
(§2) HMCL cell lines were cultured for 4 days in 96-well flat-bottom microtiter plates in RPMI 1640 medium or DMEM medium, 10% or 20% FCS (control medium) in the presence of various compounds. The number of viable cells in culture was determined using the Cell Titer-Glo Luminescent Cell Viability Assay from Promega, Madison, WI, USA using a Centro LB 960 luminometer (Berthold Technologies, Bad Wildbad, Germany).
(§3) This test is based on quantitation of the intracellular ATP present, which signals the presence of metabolically active cells. Data are expressed as the mean percentage of six replicates, normalized to the untreated control.
The therapeutic interest of iron metabolism inhibitors AM5 (Ironomycin) and AM23 was further investigated using large collection of 18 MM cell lines (Moreaux J et al. Haematologica 2011; Vikova V et al. Theranostics 2019). The IC50 of Ironomycin and AM23 respectively are illustrated in the Table 5 hereunder: […]

non-MM cells = test: Assay on primary samples of patients, non-MM cells (flow cytometry); assay type: cell-based, human; settings: primary samples of patients, n=5
Method: (§4) Primary MM cells were treated with Ironomycin (A) or AM-23 (B) and incubated during 96H with IL-6. The toxicity on MM cells and non-MM cells was analyzed by flow cytometry and expressed in % of control.
(§5) Bone marrow samples were collected after patients' written informed consent in accordance with the Declaration of Helsinki and institutional research board approval from Montpellier University hospital. Cells are obtained from […] of 5 patients with MM. Cells are obtained by density gradient separation and qualified by Flow cytometry.
(§6) Cells are cultured in Gibco® RPMI-1640 (Glutamax) medium (#6187-010) with 10% FBS at a density of 0.5×10^6 Cell/mL with 2 ng/mL of interleukin-6. Cells are seeded 24H after thawing and treated with various compounds during 72H.
(§7) Total cells were counted with trypan blue and stained with the panel CD38-APC, CD138-PE (Beckman coulter) and analyzed by flow cytometry (Fortessa cytometer, BD Pharmigen). Tumorous MM cells were gated on CD38+ and CD138+.

XG21 = test: Cell viability assay (Cell Titer-Glo), HMCL; assay type: cell-based; settings: Homo sapiens, 96 h
Method: as §1, §2, §3

MOLP-8 = test: Cell viability assay (Cell Titer-Glo), HMCL; assay type: cell-based; settings: Homo sapiens, MOLP-8, 96 h
Method: as §1, §2, §3

XG12 = test: Cell viability assay (Cell Titer-Glo), HMCL; assay type: cell-based; settings: Homo sapiens, 96 h
Method: as §1, §2, §3

OPM-2 = test: Cell viability assay (Cell Titer-Glo), HMCL; assay type: cell-based; settings: Homo sapiens, OPM-2, 96 h
Method: as §1, §2, §3

XG28 = test: Cell viability assay (Cell Titer-Glo), HMCL; assay type: cell-based; settings: Homo sapiens, 96 h
Method: as §1, §2, §3

XG20 = test: Cell viability assay (Cell Titer-Glo), HMCL; assay type: cell-based; settings: Homo sapiens, 96 h
Method: as §1, §2, §3

XG-1 = test: Cell viability assay (Cell Titer-Glo), HMCL; assay type: cell-based; settings: Homo sapiens, 96 h
Method: as §1, §2, §3

XG6 = test: Cell viability assay (Cell Titer-Glo), HMCL; assay type: cell-based; settings: Homo sapiens, XG6, 96 h
Method: as §1, §2, §3

XG24 = test: Cell viability assay (Cell Titer-Glo), HMCL; assay type: cell-based; settings: Homo sapiens, 96 h
Method: as §1, §2, §3

XG-7 = test: Cell viability assay (Cell Titer-Glo), HMCL; assay type: cell-based; settings: Homo sapiens, 96 h
Method: as §1, §2, §3

primary MM cells = test: Assay on primary MM cells of patients (flow cytometry); assay type: cell-based, human; settings: n=5, with IL-6
Method: as §4, §5, §6, §7

## CC[C@@H](C(=O)[C@@H](C)[C@@H](O)[C@H](C)[C@@H]1O[C@@H]([C@@H](CC)C(=O)O)CC[C@@H]1C)[C@H]1O[C@]2(C=C[C@@H](NC3CC3)[C@]3(CC[C@@](C)([C@H]4CC[C@](O)(CC)[C@H](C)O4)O3)O2)[C@H](C)C[C@@H]1C [AM23]
MM cell lines
  cell growth inhibition / toxicity on MM cell lines: validated the toxicity
MM cell lines; listed as AM-23
  cell growth inhibition / toxicity on MM cell lines: kill MM cells with nanomolar concentration
non-MM cells
  toxicity for non-tumoral cells: without significant toxicity
XG21
  IC50: 34.3 nM
MOLP-8
  IC50: 13 nM
XG12
  IC50: 0.8 nM
OPM-2
  IC50: 1.4 nM
XG28
  IC50: 13 nM
XG20
  IC50: 154 nM
XG-1
  IC50: 21.1 nM
XG6
  IC50: 3.8 nM
XG24
  IC50: 8.8 nM
XG-7
  IC50: 11.8 nM
Primary MM cells
  toxicity on primary MM cells of patients: validated the therapeutic interest
